In the NIST ThermoML archive (doi:10.1016/j.tca.2015.08.023):
± gives the expanded uncertainty stated by the source.

Columns and labels:
[1] = 101.33 kPa, Liquid, Vibrating tube method
[2] = refractive index (Na D-line) (dimensionless); settings: 101.33 kPa, Liquid, Standard Abbe refractometry

mass density ([1]; 298.15 K)	mass density ([1]; 308.15 K)	mass density ([1]; 318.15 K)	refractive index ([2]; 298.15 K)	refractive index ([2]; 308.15 K)	refractive index ([2]; 318.15 K)	SMILES
862.7 ± 2 kg/m3	853.8 ± 2 kg/m3	844.8 ± 2 kg/m3	1.4928 ± 0.0005	1.4879 ± 0.0005	1.4832 ± 0.0005	CCc1ccccc1 [ethylbenzene]
698.6 ± 2 kg/m3	690.5 ± 2 kg/m3	682.2 ± 2 kg/m3	1.3948 ± 0.0005	1.3904 ± 0.0005	1.3868 ± 0.0005	CCCCCCCC [octane]
857.9 ± 2.1 kg/m3	849.4 ± 2.1 kg/m3	840.9 ± 2.1 kg/m3	1.4892 ± 0.0006	1.4844 ± 0.0006	1.48 ± 0.0006	CCCc1ccccc1 [propylbenzene]
